Assay results published in patent US20150272934A1, “USE OF CSE INHIBITORS FOR THE TREATMENT OF CUTANEOUS INJURIES OR CONDITIONS AND SLEEP-RELATED BREATHING DISORDERS” (SOVA PHARMACEUTICALS, INC., priority 2012, published 2015).
Structures can show the parent of a compound that is named as a salt.

Biological target: human, mouse or rat recombinant CSE (UniProt P32929)
Test: CSE In Vitro Assay
Details: not given

Row | Structure (SMILES) | IC50
1 | CCN(N)c1nnn[nH]1 [Example 2-4] | < 10 µM
2 | CN(N)c1nnn(C)n1 [Example 2-29, 2-methyl-5-(1-methylhydrazinyl)-2H-tetrazole] | > 100 µM

Same assay, conditions: […]; species of enzyme not given

Row | Structure (SMILES) | IC50
3 | N#CCC(N)c1nnn[nH]1 (stereo not shown) [Example 1-1, 3-amino-3-(1H-tetrazol-5-yl)propionitrile dihydrochloride] | > 100 µM
4 | COCCN(N)c1nnn[nH]1 [Example 2-6] | 10 to 100 µM
5 | NCCCN(N)c1nnn[nH]1 [Example 2-12, 3-(1-(1H-tetrazol-5-yl)hydrazinyl)propan-1-amine dihydrochloride] | < 10 µM

Same assay, conditions: recombinant CSE 20 ug/ml, 50 uM PLP, DL-homocysteine substrate, 3 hours 37° C.; species of enzyme not given

Row | Structure (SMILES) | IC50
6 | C#CC[C@H](N)c1nnn[nH]1 [Example 1-2, (S)-1-(1H-tetrazol-5-yl)-but-3-ynylamine hydrochloride] | < 10 µM
7 | C#CC[C@H](N)c1noc(=O)[nH]1 [Example 1-3, (S)-3-(1-aminobut-3-ynyl)-1,2,4-oxadiazol-5(4H)-one hydrochloride] | < 10 µM
8 | C#CC[C@H](N)c1ncn[nH]1 [Example 1-4, (S)-1-(1H-1,2,4-triazol-5-yl)but-3-yn-1-amine hydrochloride] | < 10 µM
9 | C#CC[C@H](N)c1nc(C(F)(F)F)n[nH]1 [Example 1-5, (S)-1-(3-(trifluoromethyl)-1H-1,2,4-triazol-5-yl)but-3-yn-1-amine hydrochloride] | > 100 µM
10 | C#CC[C@H](N)c1nc(N)n[nH]1 [Example 1-6, (S)-5-(1-aminobut-3-ynyl)-1H-1,2,4-triazol-3-amine hydrochloride] | > 100 µM
11 | C#CC[C@H](N)C(=O)Nc1nn[nH]n1 [Example 1-7, (S)-2-amino-N-(2H-tetrazol-5-yl)pent-4-ynamide] | 10 to 100 µM
12 | C#CC[C@H](N)C(=O)NS(=O)(=O)c1ccccc1 [Example 1-8, (S)-2-amino-N-(phenylsulfonyl)pent-4-ynamide hydrochloride] | 10 to 100 µM
13 | C#CC[C@H](N)C(=O)NS(C)(=O)=O [Example 1-9, (S)-2-amino-N-(methylsulfonyl)pent-4-ynamide hydrochloride] | 10 to 100 µM
14 | CN(C)CCCN(N)c1nnn[nH]1 [Example 2-1, 3-(1-(1H-tetrazol-5-yl)hydrazinyl)-N,N-dimethylpropan-1-amine] | 10 to 100 µM
15 | CN(C)CCN(N)c1nnn[nH]1 [Example 2-2, 2-(1-(1H-tetrazol-5-yl)hydrazinyl)-N,N-dimethylethanamine] | > 100 µM
16 | C#CCN(N)c1nnn[nH]1 [Example 2-3, 5-(1-(prop-2-ynyl)hydrazinyl)-1H-tetrazole] | < 10 µM
17 | COCCCN(N)c1nnn[nH]1 [Example 2-5] | > 100 µM
18 | CCCN(N)c1nnn[nH]1 [Example 2-7] | 10 to 100 µM
19 | NN(Cc1ccccc1)c1nnn[nH]1 [Example 2-8] | > 100 µM
20 | CC(C)N(N)c1nnn[nH]1 [Example 2-9] | > 100 µM
21 | CC(C)CN(N)c1nnn[nH]1 [Example 2-10] | > 100 µM
22 | CN(N)c1nnn[nH]1 [Example 2-11] | < 10 µM
23 | NCCN(N)c1nnn[nH]1 [Example 2-13] | < 10 µM
24 | CNCCN(N)c1nnn[nH]1 [Example 2-14] | 10 to 100 µM

Row | Structure (SMILES) | IC50
25 | CNCCCN(N)c1nnn[nH]1 [Example 2-15] | < 10 µM
26 | C(=N\Nc1nnn[nH]1)/c1ccccc1 [Example 2-17, (E)-5-(2-benzylidenehydrazinyl)-1H-tetrazole] | 10 to 100 µM
27 | CN(C)c1ccc(/C=N/Nc2nnn[nH]2)cc1 [Example 2-18] | 10 to 100 µM
28 | Clc1ccc(/C=N/Nc2nnn[nH]2)c(Cl)c1 [Example 2-19] | > 100 µM
29 | Clc1ccc(/C=N/Nc2nnn[nH]2)cc1 [Example 2-20] | < 10 µM
30 | CC(C)=NNc1nnn[nH]1 [Example 2-21] | < 10 µM
31 | C/C(=N\Nc1nnn[nH]1)c1ccc(N(C)C)cc1 [Example 2-22] | < 10 µM
32 | C1CCC(=NNc2nnn[nH]2)CC1 [Example 2-23] | < 10 µM
33 | C1CCC(=NNc2nnn[nH]2)C1 [Example 2-24] | < 10 µM
34 | CC/C(C)=N/Nc1nnn[nH]1 [Example 2-25] | < 10 µM
35 | CN(C)c1ccc(C(=O)C/C=N/Nc2nnn[nH]2)cc1 [Example 2-26, (E)-3-(2-(1H-tetrazol-5-yl)hydrazono)-1-(4-(dimethylamino)phenyl)propan-1-one] | < 10 µM
36 | CN(C)c1ccc(/C=N/N(C)c2nnn[nH]2)cc1 [Example 2-27, (E)-N,N-dimethyl-4-((2-methyl-2-(1H-tetrazol-5-yl)hydrazono)methyl)aniline] | 10 to 100 µM
37 | CC(C)=NN(C)c1nnn[nH]1 [Example 2-28, 5-(1-methyl-2-(propan-2-ylidene)hydrazinyl)-1H-tetrazole] | < 10 µM
38 | CCN(N)c1ncn[nH]1 [Example 2-31, 5-(1-ethylhydrazinyl)-1H-1,2,4-triazole] | > 100 µM
39 | CN(N)c1noc(=O)[nH]1 [Example 2-32, 3-(1-methylhydrazinyl)-1,2,4-oxadiazol-5(4H)-one hydrochloride] | 10 to 100 µM
40 | CCN(N)C(=O)c1nnn[nH]1 [Example 2-33, N-ethyl-1H-tetrazole-5-carbohydrazide] | > 100 µM
41 | CCN(N)C(=O)Nc1nnn[nH]1 [Example 2-34, 1-ethyl-N-(1H-tetrazol-5-yl)hydrazinecarboxamide] | > 100 µM
42 | CCN(N)C(=O)NS(=O)(=O)c1ccccc1 [Example 2-35, 1-ethyl-N-(phenylsulfonyl)hydrazinecarboxamide] | > 100 µM

Tested on: hypoxic ventilatory response
Test: Dose response to dl-propargylglycine (PAG) in the rat hypoxic ventilatory response (HVR) assay
Type: in vivo, Sprague Dawley rats
Details: PAG 1 or 3 mg/kg IP; FiO2 21% to 10%
Protocol: Male Sprague Dawley rats weighing 343±17 g (Mean±SD); weight range 316-381 g, were obtained from Harlan Laboratories and maintained on a 12 hour light:dark cycle (6 am lights on) with food and water ad libitum.
DSI: Rat unrestrained whole body plethysmography chamber (˜8″ diameter plexiglass), ACQ 7700 Acquisition Interface, Validyne DP45 low range differential pressure transducers, Ponemah software.
dl-Propargyl Glycine (PAG) was obtained from Sigma (Cat #P7888; Lot#BCBD1765V) and solubilized in 0.9% NaCl. Drugs were prepared fresh on the day of use.
Test compounds were administered via the intraperitoneal route at a dose volume of 3 mUkg.
Animals were pre-habituated to the test environment on 3 separate 1-hour periods prior to the test day. Following administration of test compounds animals were placed inside the whole body plethysmography chamber. The animals were allowed to acclimate to the environment for 60 minutes while breathing a 21% O2 balance N2 gas mix. After acclimation, the following gas mix protocol was followed:
Cycles were designated to be the periods of both normoxia and hypoxia. Each experiment consisted of 3 cycles (or repeated sets) of the HVR to a normoxic-hypoxic shift. The cycles were 30 minutes in duration to allow for serial sampling from baseline and all 4 WBP test chambers. Each sampling period was of 4 minutes duration and was in a varying order but was always preceded by a 4 minute baseline. The sampling periods were calculated to allow for equilibration of the gas mixture in the WBP chamber. Switching of the multiplexer (MUX) line sampler system was achieved through use of a user defined program. The gas mixtures were likewise switched automatically using a user defined custom mix program and the Sable Systems/Alicat Multi Flow Controller utility.
Analysis of data was performed in GraphPad Prism (v5) using embedded 1-way Analysis of Variance (ANOVA) followed by Dunnett's or Tukey's MCT post hoc testing where appropriate. Dual data sets were analyzed using the Student's t-test. Bartlett's Equal Variance tests were performed on all data sets, however failure of equal variance was not considered to impinge the validity of the test.

Row | Structure (SMILES) | Increase in minute ventilation (VE) from normoxia to hypoxia
43 | C#CCC(N)C(=O)O (racemic) [PAG, dl-Propargylglycine] | not

Same assay, conditions: PAG 10, 30 and 100 mg/kg; both normoxic and hypoxic conditions; p<0.05

Row | Structure (SMILES) | VH2O
44 | C#CCC(N)C(=O)O (racemic) [PAG, dl-Propargylglycine] | significantly impacted

Same assay, conditions: PAG 10, 30 and 100 mg/kg; compared to saline, p<0.05

Row | Structure (SMILES) | VE at 10% FiO2
45 | C#CCC(N)C(=O)O (racemic) [PAG, dl-Propargylglycine] | significantly reduced

Same assay, conditions: PAG 10, 30 or 100 mg/kg IP; FiO2 21% to 10%

Row | Structure (SMILES) | Increase in minute ventilation (VE) from normoxia to hypoxia
46 | C#CCC(N)C(=O)O (racemic) [PAG, dl-Propargylglycine] | blunted

Same assay, conditions: PAG 10 and 100 mg/kg; compared to saline, p<0.05

Row | Structure (SMILES) | VE at an FiO2 of 21%
47 | C#CCC(N)C(=O)O (racemic) [PAG, dl-Propargylglycine] | reduced significantly

Same assay, conditions: PAG 30 and 100 mg/kg IP; p<0.05 versus vehicle

Row | Structure (SMILES) | Slope of the hypoxic ventilatory response (ΔVE, HVR)
48 | C#CCC(N)C(=O)O (racemic) [PAG, dl-Propargylglycine] | significantly reduced

Same assay, conditions: PAG below a dose of 10 mg/kg

Row | Structure (SMILES) | Slope of the hypoxic ventilatory response (ΔVE)
49 | C#CCC(N)C(=O)O (racemic) [PAG, dl-Propargylglycine] | no effect

Same assay, conditions: normoxic conditions; PAG 10 and 100 mg/kg; p<0.05

Row | Structure (SMILES) | VO2
50 | C#CCC(N)C(=O)O (racemic) [PAG, dl-Propargylglycine] | significantly decreased

Same assay, conditions: rat, in vivo

Row | Structure (SMILES) | VCO2
51 | C#CCC(N)C(=O)O (racemic) [PAG, dl-Propargylglycine] | no effect

Tested on: deep partial thickness cutaneous burn injury, zone of stasis
Test: Comb burn model for cutaneous burn
Type: in vivo, Sprague-Dawley rats
Details: L-propargylglycine 100 mg/kg IP Day 0; Compound 1 20 mg/kg PO once daily; 6-day time course; versus control animals

Row | Structure (SMILES) | Viability of zones of stasis/interspaces on gross examination (burn progression)
52 | CN(N)c1nnn[nH]1 [Compound 1, 5-(1-methylhydrazinyl)-1H-tetrazole] | maintain viability

Same assay, conditions: within 48-72 hours; less injured versus worse/the same scale

Row | Structure (SMILES) | Blinded photo grading of treated interspaces versus control interspaces
53 | CN(N)c1nnn[nH]1 [Compound 1, 5-(1-methylhydrazinyl)-1H-tetrazole] | less injured than controls

Tested on: obstructive sleep apnea
Test: not given
Details: twelve patients; cited from earlier work

Row | Structure (SMILES) | decrease in occurrence of apnea episodes | decrease in sleep disruptions
54 | CN1CCN2c3ncccc3Cc3ccccc3C2C1 (stereo not shown) [mirtazapine] | 50% | 28%
